These results are taken from patent publication US20250197425A1, “2,6,9-TRISUBSTITUTED PURINES” (ASTRAZENECA AB, priority 2022, published 2025).

Data set [1] concerns OVCAR3 cells. Description: Cellular proliferation EdU assay, OVCAR3. Type of data set: cell-based, human. The following applies: Homo sapiens, OVCAR-3, 48 h, EdU assay, two days; read-out: OVCAR3 IC50. In outline: (§1)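 MCF-7 (800 cells/well) and OVCAR3 (1200 cells/well) in RPMI with 10% FBS exposed to compounds for two days at 37 °C.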
In the next data set the test system is MCF-7 cells. As to the kind of experiment: Cellular proliferation EdU assay, MCF-7. Type of data set: cell-based. The following applies: Homo sapiens, MCF7, 48 h, EdU assay, two days; read-out: MCF-7 IC50. The method in brief:
as §1

Data set [2] concerns POLR2A Ser2 phosphorylation (CDK9). Description: POLR2A Ser2 phosphorylation imaging assay in MCF-7 cells. The format is cell-based. The settings on record: Homo sapiens, MCF7, 2 h, MCF-7 cells, 2 hours; read-out: POLR2A Ser2 phosphorylation IC50. In outline:
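MCF-7 cells were fixed, permeabilised and immunostained for POLR2A phospho-Ser2, then imaged by high-content microscopy. Levels were normalised to controls and IC50 values derived.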

Data set [3] addresses 379 non-CDK kinase (or non-CDK kinase-complex) targets. As to the kind of experiment: Kinase profiling (SelectScreen, ThermoFisher). The format is biochemical. The following applies: compared with Compound 6. From the text: Test compounds were profiled against a broad panel of kinases at ThermoFisher Scientific using the SelectScreen Kinase Profiling Services. Each kinase assay used one of the following assay technology protocols: • 1) Z-LYTE™ Screening Protocol and Assay Conditions (Revised 23 Jan. 2018 version) available at http://assets.thermofisher.com/TFS-Assets/BID/Methods-&-Protocols/20180123_SSBK_Customer_Protocol_and_Assay_Conditions.pdf; • 2) Adapta™ Screening Protocol and Assay Conditions (Revised 23 Jan. 2018 version) available at http://assets.thermofisher.com/TFS-Assets/BID/Methods-&-Protocols/20180123_SSBK_Adapta_Customer_Protocol_and_Assay_Conditions.pdf; or • 3) LanthaScreen™ Eu Kinase Binding Assay Screening Protocol and Assay Conditions (Revised 23 Jan. 2018 version) available at http://assets.thermofisher.com/TFS-Assets/BID/Methods-&-Protocols/20180123_SSBK_LanthaScreen_Binding_Customer_Protocol_and_Assay_Co nditions.pdf.

The target in the next data set is CDK2:CCNE1 (Homo sapiens (Human), UniProt P24941). Description: NanoBRET assay in MCF-7 cells, CDK2. The format is cell-based. The following applies: transfected MCF-7 cells, 2 hours, n = 1 or average. In outline: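 In live MCF-7 cells, compound added followed by NanoBRET TE Tracer K-9 (stock 200 μM) for CDK2, 2 h at 37° C, 5% CO2.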
(In general: In BRET a luciferase serves as donor, and the signal depends on an acceptor being close.)

The target of another data set is CDK1:CCNB1 (Homo sapiens (Human), UniProt P06493). Description: NanoBRET assay in MCF-7 cells, CDK1. The format is cell-based. The settings on record: NanoBRET, transfected MCF-7 cells, 2 hours; n = 1 or average; read-out: CDK1 IC50. The method in brief: (§2)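 Intracellular target engagement was measured by NanoBRET ratio (460 nm/610 nm) in live MCF-7 cells transiently carrying CDK4:CCND1 (Tracer K-7, 100 μM stock) or CDK1:CCNB1 (Tracer K-9, 400 μM stock).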

Data set [4] relates to OVCAR3 cells. Description: Cell proliferation CyQUANT assay, OVCAR3. The following applies: Homo sapiens, OVCAR-3, 168 h; CyQUANT cell counts, 7 days. The format is cell-based. As for the experimental part:
(§3) An imaging-based assay was used to investigate changes in cell number in OVCAR3 cells (CCNE1-amplified ovarian cancer cell line) and SKOV3 cells (non-amplified ovarian cancer cell line) treated with test compounds.
(§4) Cells were plated in 384 well plates (Perkin-Elmer 6057300) in RPMI-1640/10% FBS/1× L-Glu at 500 cells per well in 30 μL and incubated with test compound at 37° C. and 5% CO2 for 7 days. Cells were then stained using the CyQuant Direct Cell Proliferation Assay Kit (Thermo Cat #C7026) in accordance with the kit protocol. The stained cells were imaged using an Operetta high content imager to generate cell counts and IC50 values were calculated relative to DMSO controls.

The next data set relates to SKOV3 cells. Description: Cell proliferation CyQUANT assay, SKOV3. Type of data set: cell-based. The following applies: Homo sapiens, SK-OV-3, 168 h; CyQUANT cell counts, 7 days. How it is done: as §3, §4
Data set [5] deals with NPM phosphorylation (Thr199, CDK2-cyclin E complex). As to the kind of experiment: NPM phosphorylation imaging assay in MCF-7 cells. Type of data set: cell-based. The following applies: Homo sapiens, MCF7, 2 h, 4N DNA cells. The method in brief: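 MCF-7 cells were fixed, permeabilised and immunostained, then imaged for phospho-NPM (Thr199), a CDK2-cyclin E site. Analysis was gated on 4N-DNA cells by Hoechst staining. Signals were normalised to controls and fitted for IC50.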

Another data set addresses CDK4:CCND1 (Homo sapiens (Human), UniProt P11802). As to the kind of experiment: NanoBRET assay in MCF-7 cells, CDK4. Type of data set: cell-based. The following applies: NanoBRET, transfected MCF-7 cells, 2 hours; n = 1 or average; read-out: CDK4 IC50. The method in brief:
as §2

A short description of data set [6]: Aqueous thermodynamic solubility, shake-flask. Type of data set: physicochemical. The following applies: aqueous phosphate buffer, 25 °C, pH 7.4, aqueous buffer, thermodynamic from solid, phosphate buffer 0.1 M, pH 7.4, 24 hours. The method in brief:
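After 24 h stirring at 25° C. in pH 7.4 phosphate buffer (0.1 M), solid-free supernatant from two centrifugations was quantified by UPLC/MS/MS after dilution in water. Compound was added as dried material after DMSO removal.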

Data set [7] can be described thus: CLint assessment in human liver microsomes (HLM). The following applies: 1 μM. Type of data set: in vitro ADME. The method in brief: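 Microsomes preincubated 8 min with NADPH, then compound added and incubated 30 min at 37° C. Remaining compound measured by LC-MS/MS. t1/2 and CLint calculated, with CLint scaled to incubation volume per mg microsomal protein.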

SMILES strings stand for the structures. ≈ marks a conversion by molar mass, not a printed value.

Sequence of CDK1:CCNB1 (P06493 whole entry): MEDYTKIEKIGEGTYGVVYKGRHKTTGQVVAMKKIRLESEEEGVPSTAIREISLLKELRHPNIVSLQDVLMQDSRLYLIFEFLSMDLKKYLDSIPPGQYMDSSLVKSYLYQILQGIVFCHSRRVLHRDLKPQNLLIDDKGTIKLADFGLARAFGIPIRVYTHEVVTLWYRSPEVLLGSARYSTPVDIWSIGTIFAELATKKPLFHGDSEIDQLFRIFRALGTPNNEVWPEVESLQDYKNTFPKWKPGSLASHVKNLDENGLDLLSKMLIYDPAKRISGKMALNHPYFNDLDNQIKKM
Sequence of CDK1:CCNB1 (P14635 whole entry partner): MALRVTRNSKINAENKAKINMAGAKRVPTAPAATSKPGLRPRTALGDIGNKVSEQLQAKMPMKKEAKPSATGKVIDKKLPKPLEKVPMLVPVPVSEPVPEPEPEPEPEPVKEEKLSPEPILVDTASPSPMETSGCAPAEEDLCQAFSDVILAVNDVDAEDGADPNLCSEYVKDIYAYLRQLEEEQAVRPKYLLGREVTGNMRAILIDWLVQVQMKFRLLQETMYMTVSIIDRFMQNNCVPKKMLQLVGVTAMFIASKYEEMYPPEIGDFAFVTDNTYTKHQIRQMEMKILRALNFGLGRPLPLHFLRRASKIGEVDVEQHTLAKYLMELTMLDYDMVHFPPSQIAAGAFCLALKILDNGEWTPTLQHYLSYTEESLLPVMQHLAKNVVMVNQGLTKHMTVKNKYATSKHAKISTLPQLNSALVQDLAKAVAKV
Sequence of CDK4:CCND1 (P11802 whole entry): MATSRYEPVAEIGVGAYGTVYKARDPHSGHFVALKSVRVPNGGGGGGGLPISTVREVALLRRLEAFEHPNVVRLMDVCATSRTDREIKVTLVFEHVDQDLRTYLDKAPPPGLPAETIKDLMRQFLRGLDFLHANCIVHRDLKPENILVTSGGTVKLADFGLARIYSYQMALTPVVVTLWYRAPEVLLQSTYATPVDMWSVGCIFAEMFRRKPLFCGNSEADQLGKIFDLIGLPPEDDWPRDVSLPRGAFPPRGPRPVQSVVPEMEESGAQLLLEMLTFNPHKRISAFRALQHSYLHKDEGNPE
Sequence of CDK4:CCND1 (P24385 whole entry partner): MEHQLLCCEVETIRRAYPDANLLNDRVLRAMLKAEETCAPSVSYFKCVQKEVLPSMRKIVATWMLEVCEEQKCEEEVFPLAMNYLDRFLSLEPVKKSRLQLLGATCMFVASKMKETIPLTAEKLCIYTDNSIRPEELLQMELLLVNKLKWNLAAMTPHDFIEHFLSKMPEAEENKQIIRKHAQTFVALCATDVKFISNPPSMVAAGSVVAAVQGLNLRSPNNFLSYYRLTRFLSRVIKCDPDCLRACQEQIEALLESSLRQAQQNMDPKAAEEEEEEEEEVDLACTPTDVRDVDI

In the case of `CCn1cnc2c(N[C@H]3CCN(S(C)(=O)=O)C3)nc(N[C@@H](CO)C3CC3)nc21` [Example 39, (R)-2-cyclopropyl-2-((9-ethyl-6-(((S)-1-(methylsulfonyl)pyrrolidin-3-yl)amino)-9H-purin-2-yl)amino)ethanol], the IC50 in the data set on OVCAR3 cells [1] was 288 nM; in the data set on MCF-7 cells, 658 nM; in [2] it was more than 30000 nM. The kinase inhibition profile entry in data set [3] is “broadly similar kinase inhibition profiles to Compound 6”.

For `O=S(=O)(c1ncc[nH]1)N1C[C@@H](F)[C@H](Nc2nc(N[C@@H](CO)C3CC3)nc3c2ncn3C(F)F)C1` (relative stereo) [Example 61, (R)-2-((6-(((3R*,4R*)-1-((1H-imidazol-2-yl)sulfonyl)-4-fluoropyrrolidin-3-yl)amino)-9-(difluoromethyl)-9H-purin-2-yl)amino)-2-cyclopropylethan-1-ol], the IC50 is 53 nM in the data set with OVCAR3 cells [1]; 5 nM on CDK2:CCNE1; 115 nM on CDK1:CCNB1; 34 nM in the data set with OVCAR3 cells [4]; 514 nM with SKOV3 cells; 17 nM in [5]. In addition, the IC50 in data set [2] stood at 1700 nM; on CDK4:CCND1 it was 800 nM.

As for `CCn1cnc2c(N[C@H]3CCN(S(C)(=O)=O)C3)nc(N[C@@H](CO)C(C)C)nc21` [Example 28, (R)-2-((9-ethyl-6-(((S)-1-(methylsulfonyl)pyrrolidin-3-yl)amino)-9H-purin-2-yl)amino)-3-methylbutan-1-ol], the figures for the half-inhibitory concentration (IC50) (with OVCAR3 cells [1]; in the data set with MCF-7 cells; in [2]) were 186 nM, 699 nM and more than 30000 nM, respectively. Also, the kinase inhibition profile entry in data set [3] is given as “broadly similar kinase inhibition profiles to Compound 6”.

Regarding `CC[C@H](Nc1nc(N[C@H]2CCN(S(=O)(=O)NC)C2)c2ncn(CC)c2n1)[C@@H](C)O` [Example 44, (S)-3-((9-ethyl-2-(((2R,3S)-2-hydroxypentan-3-yl)amino)-9H-purin-6-yl)-amino)-N-methylpyrrolidine-1-sulfonamide], the IC50 in the data set on OVCAR3 cells [1] was 242 nM; in the data set on OVCAR3 cells [4], 133 nM; with MCF-7 cells it was 592 nM; in the data set on SKOV3 cells, 9150 nM; in data set [2], more than 29100 nM. Also, the kinase inhibition profile entry in data set [3] is “broadly similar kinase inhibition profiles to Compound 6”.

For the molecule `CC[C@@H](CO)Nc1nc(N[C@H]2CCN(S(=O)(=O)NC)C2)c2ncn(CC)c2n1` [Example 48, (S)-3-((9-ethyl-2-(((S)-1-hydroxybutan-2-yl)amino)-9H-purin-6-yl)-amino)-N-methylpyrrolidine-1-sulfonamide], the IC50 in the data set with OVCAR3 cells [1] is 2350 nM; against CDK2:CCNE1, 123 nM; on CDK1:CCNB1, 5550 nM; in the data set on MCF-7 cells it was 3330 nM; in [5], 1300 nM; in data set [2], more than 30000 nM. Moreover, the IC50 on CDK4:CCND1 was more than 23800 nM. The same molecule came in with a solubility at 24 h in data set [6] of more than 1000 µM. Moreover, the “HLM CLint” value in [7] was determined as 13.3 µL/min/mg.

For the molecule `CC[C@H](Nc1nc(N[C@@H]2CN(S(=O)(=O)c3ncc[nH]3)C[C@H]2F)c2ncn(C)c2n1)[C@@H](C)O` (relative stereo) [Example 56, (2R,3S)-3-((6-(((3R*,4R*)-1-((1H-imidazol-2-yl)sulfonyl)-4-fluoropyrrolidin-3-yl)amino)-9-methyl-9H-purin-2-yl)amino)pentan-2-ol], the IC50 amounted to 519 nM in the data set on OVCAR3 cells [1]; 69 nM on CDK2:CCNE1; 1500 nM at CDK1:CCNB1; 1180 nM in the data set on MCF-7 cells; 299 nM in [5]; 23900 nM in [2]. The IC50 on CDK4:CCND1 came out at 22000 nM. The molecule also came in with a solubility at 24 h in data set [6] of more than 1000 µM. Moreover, the “HLM CLint” value in data set [7] is 39.8 µL/min/mg.

`C[C@H](Nc1nc(N[C@@H]2CN(S(=O)(=O)c3ncc[nH]3)C[C@H]2F)c2ncn(C(F)F)c2n1)[C@@H](O)C(F)(F)F` (relative stereo) [Example 57, (2R,3S)-3-((6-(((3R*,4R*)-1-((1H-imidazol-2-yl)sulfonyl)-4-fluoropyrrolidin-3-yl)amino)-9-(difluoromethyl)-9H-purin-2-yl)amino)-1,1,1-trifluorobutan-2-ol]: the concentration for half-maximal inhibition (IC50) in the data set on OVCAR3 cells [1] was determined as 155 nM; against CDK2:CCNE1, 11 nM; on CDK1:CCNB1, 186 nM; in the data set with MCF-7 cells, 200 nM; in data set [5], 55 nM; in data set [2], 4400 nM. Also, at CDK4:CCND1, the IC50 stood at 1500 nM. The solubility at 24 h in [6] is 884 µM (≈ 480 µg/mL). The “HLM CLint” value in [7] is 33.5 µL/min/mg.

As to `CCn1cnc2c(N[C@H]3CCN(S(=O)(=O)CCOC)C3)nc(N[C@@H](CO)C(C)C)nc21` [Example 42, (R)-2-((9-ethyl-6-(((S)-1-((2-methoxyethyl)sulfonyl)pyrrolidin-3-yl)-amino)-9H-purin-2-yl)amino)-3-methylbutan-1-ol], the half-inhibitory concentration (IC50) was 428 nM in the data set with OVCAR3 cells [1]; 27 nM on CDK2:CCNE1; 875 nM at CDK1:CCNB1; 925 nM in the data set on MCF-7 cells; 310 nM in data set [5]; more than 30000 nM in data set [2]. For the same molecule, the IC50 on CDK4:CCND1 amounted to 4500 nM. For the same molecule, in data set [6], the solubility at 24 h was 167 µM (≈ 76.1 µg/mL). Further, the “HLM CLint” value in data set [7] was determined as 196 µL/min/mg.

A word on the IC50: it is the midpoint of a concentration-inhibition curve. Usually solubility stands for how much of the substance goes into solution per volume. A lower solubility goes with a poorly soluble substance.
